Experimental data published in US20240398775A1, “PHARMACEUTICAL COMPOSITION FOR USE IN TREATING COGNITIVE DECLINE OR FOR USE IN TREATING OVERWEIGHT OR OBESITY” (University of the Ryukyus, priority 2021, published 2024).

Experiments:
Type in all cases: in vivo, mouse
[1] = system: NL-G-F(−/−) mice; assay: Hippocampus function-dependent fear conditioning test in NL-G-F(−/−) mice; settings: perampanel alone 5 mg/kg or 10 mg/kg
Procedure: Contextual fear conditioning was applied with slight modifications to published protocols (50). Mice were transferred to the animal experimental room and allowed to acclimatize for at least 30 minutes prior to contextual fear conditioning training. Next, the mice were placed in a foot shock system model MK-450 MSQ (Muromachi Kikai Co., Ltd., Japan), searching was performed for 2 minutes, and then 3 electric foot shocks (0.8 mA, 2 sec, 2 min interval) were performed. After mice were left in the apparatus for an additional 1 minute, the animals were removed.
NL-G-F(−/−) mice, a dementia model, were administered with memantine (mema), exercise, memantine and exercise, memantine and perampanel, and perampanel alone (5 mg/kg or 10 mg/kg), and subjected to behavioral experiments. As the behavior test, a novel object recognition test and a hippocampus function-dependent fear conditioning test were performed. Memantine is an antagonist of the NMDA receptor, but has distinct properties from other NMDA receptor antagonists (refer to Hokama Y., et al., Neuro Oncology, 2022, noac162). That is, memantine is a drug that works only when glutamic acid is excessively present in the brain.

[2] = system: HFD-fed mice; assay: Morris water maze pattern completion test; settings: PER administration
Procedure: The Morris water maze task was performed as previously described using mice with CD, HFD, and HFD with PER treatment (49). All experiments were performed at approximately the same time of day. Mice were transported from the colony to the holding area and kept undisturbed for 30 minutes prior to the experiment. The tests were performed in a rectangular dimly lit room with a circular pool (Muromachi Kikai Co., Ltd., Tokyo, Japan) of 120 cm diameter filled with opaque water with skim milk (Morinaga, Japan) kept at room temperature. Four large objects illuminated by floor lamps were hung on the black curtains surrounding the pool as cues outside the maze. A hidden circular platform with a diameter of 10 cm was placed 1 cm below the surface of the water and the mice were trained to find the platform 4 times per day at intervals of approximately 60 minutes for 12 days. During training, the mice were released from 4 start points (N, S, E, and W) assigned in a pseudo-random manner and allowed to swim for 300 seconds.
On the thirteenth day, a probe trial was performed under the condition of full-cue (P1). […] Training and probe trial data were collected and analyzed using CompACT VAS/DV video tracking system software. The escape latency to the hidden platform (goal reaching time) was measured.

[3] = system: GluA2 mRNA / (GluA1+GluA3+GluA4 mRNA); assay: qRT-PCR of AMPAR/NMDAR subunits in hippocampal regions, Ca2+ permeability index
Procedure: Hippocampal slices of 17 to 18 week old male C57BL/6J background mice (CD, HFD, and HFD with PER treatment) or 12 to 13 week old ob/ob mice (ob/ob, and ob/ob with PER treatment) were prepared as previously reported (56, 57). After preparing and collecting hippocampal slices, CA1, CA2, CA3, DG, and EC regions were separated from hippocampal slices using a dissection knife from […] background mice and ob/ob mice, respectively. The CA1, CA2, CA3, DG, and EC regions of mice were separated and immediately lysed in disposable homogenization tube BioMasher2 (trademark) (Nippi, Tokyo, Japan) using 0.5 mL of TRIzol RNA isolation reagent (Thermo Fisher Scientific, Wilmington, DE). Total RNA was individually extracted from each region according to the remaining protocol of the TRIzol RNA isolation reagent provided by the manufacturer (Thermo Fisher Scientific, Wilmington, DE). 1 μg of total RNA was reverse transcribed using PrimeScript RT Reagent Kit (Takara, Shiga, Japan). An aliquot of the obtained CDNA was diluted 1:10 and added to a master mix of TB Green Premix ExTaq (Takara, Shiga, Japan), and real-time PCR was performed using a 7500 Fast Real-Time PCR system (Applied Biosystems, Foster City, CA, USA) according to the manufacturer's instructions. The conditions for real-time PCR were as follows. 40 cycles of 95° C. for 30 seconds, then 95° C. for 5 seconds and 60° C. for 34 seconds. The fluorescence intensity was measured for each annealing step and the threshold cycle time was determined using 7500 software. In addition, relative expression levels of β-actin were normalized to respective controls (vehicle group). The relative expression level of the target gene in each sample was determined using a standard curve and further normalized to the expression level of β-actin of the same sample. The sequences of primers and probes for these genes are shown in Supplemental Table 2. The “ratio of GluA2 mRNA amount/(GluA1+GluA3+GluA4 mRNA amount” was used as a Ca^2+ permeability index.
GluA2 is edited at the Q/R site within the reentry M2 membrane loop region by adenosine deaminase (ADAR2), which acts on RNA type 2 involved in editing double-stranded RNA from adenosine (A) to inosine (I) (review, refer to 15, 16 and 17). Attempts were made to determine real-time quantitative reverse transcription polymerase chain reaction (qRT-PCR), subunit composition of AMPAR and NMDAR. Total RNA in hippocampal subregions (CA1, CA3, DG, EC) was separated, and quantitative analysis of mRNA of GluA1, GluA2, GluA3, and GluA4 for AMPAR, and GluN1, GluN2A, GluN2B, and GluN2C for NMDAR was performed by qRT-PCR. […] Based on the mRNA amount of each subunit, the ratio of GluA2 to other GluA subunits (FIG. 2B) was determined. The ratio was defined as a Ca^2+ permeability index.

[4] = HFD-fed mice with PER, ratio GluA2 mRNA/(GluA1+GluA3+GluA4 mRNA), N = 5

N#Cc1ccccc1-c1cc(-c2ccccn2)cn(-c2ccccc2)c1=O [PER, 3-(2-cyanophenyl)-5-(2-pyridyl)-1-phenyl-1,2-dihydropyridine-2-one]
cognitive function in hippocampus function-dependent fear conditioning test [1]: remarkable improvement in cognitive function | pattern completion ability [2]: restored | Ca2+-permeability index CA1 [3, 4]: 0.29 ± 0.11 | Ca2+-permeability index CA3 [3, 4]: 0.26 ± 0.10 | Ca2+-permeability index DG [3, 4]: 0.22 ± 0.06 | Ca2+-permeability index EC [3, 4]: 0.30 ± 0.05 | Ca2+ permeability index via CA1, CA3, DG and EC ([3]; HFD-fed mice, PER administration, N=5): returned to CD-fed mouse levels | GluA2 mRNA expression in CA1 ([3]; mice fed HFD with PER, qRT-PCR, p<0.05): significant increase
